# Reference: patent US20080008674A1, “Use of C-glycoside derivative for improving the skin's barrier function” (L'OREAL, priority 2006, published 2008)
# Marks after values point to notes of the source that are not given here.
# Test system: reconstructed epidermis (Episkin J13)
# Assay: Penetration of radiolabelled caffeine through reconstructed human epidermis (barrier function)
# Format: cell-based
# Settings: for passage of [14C]-caffeine, percentage of passage relative to an untreated control: 5 days treatment
# Protocol: The efficacy of the barrier function of a skin may be evaluated by measuring the passage through it of a labelled molecule, for instance radiolabelled caffeine.
# Skin with an improved barrier function is thus characterized in that it slows down, or even reduces, the passage of the said molecule through its epidermis.
# Two batches of reconstructed epidermis (Episkin J13) (batches 1 and 2) are treated for 5 days with the product C-β-D-xylopyranoside-n-propan-2-one, which is applied in the culture medium at a final concentration of 0.2% and 0.04% by weight/volume.
# Vitamin C is used as reference molecule at a concentration of 200 μg/ml, in systemic treatment.
# After 5 days of culturing, 100 μl and 2 UCi/ml, i.e. 0.04 mM of [^14C]-caffeine (radiolabelled caffeine) and 0.35 mM of cold caffeine (non-radiolabelled caffeine) are applied to the surface, and kinetics of uptake into the medium are determined at eight different times.
# The results are expressed as a percentage of passage relative to an untreated control.
structure (smiles),measurement,setting,value
CC(=O)C[C@@H]1OC[C@@H](O)[C@H](O)[C@H]1O [C-β-D-xylopyranoside-n-propan-2-one],"passage of [14C]-caffeine, percentage of passage relative to an untreated control","Batch 1 of reconstructed epidermis, 0.04% AM, sample taken at 1 h 30",52%
same,"passage of [14C]-caffeine, percentage of passage relative to an untreated control","Batch 1 of reconstructed epidermis, 0.04% AM, sample taken at 3 h",66%
same,"passage of [14C]-caffeine, percentage of passage relative to an untreated control","Batch 1 of reconstructed epidermis, 0.04% AM, sample taken at 4 h",64 * %
same,"passage of [14C]-caffeine, percentage of passage relative to an untreated control","Batch 1 of reconstructed epidermis, 0.04% AM, sample taken at 5 h",73 * %
same,"passage of [14C]-caffeine, percentage of passage relative to an untreated control","Batch 1 of reconstructed epidermis, 0.04% AM, sample taken at 6 h",70 * %
same,"passage of [14C]-caffeine, percentage of passage relative to an untreated control","Batch 1 of reconstructed epidermis, 0.04% AM, sample taken at 7 h",69 * %
same,"passage of [14C]-caffeine, percentage of passage relative to an untreated control","Batch 1 of reconstructed epidermis, 0.04% AM, sample taken at 9 h",77 * %
same,"passage of [14C]-caffeine, percentage of passage relative to an untreated control","Batch 1 of reconstructed epidermis, 0.04% AM, sample taken at 24 h",75 * %
same,"passage of [14C]-caffeine, percentage of passage relative to an untreated control","Batch 1 of reconstructed epidermis, 0.2% AM, sample taken at 1 h 30",66%
same,"passage of [14C]-caffeine, percentage of passage relative to an untreated control","Batch 1 of reconstructed epidermis, 0.2% AM, sample taken at 3 h",94%
same,"passage of [14C]-caffeine, percentage of passage relative to an untreated control","Batch 1 of reconstructed epidermis, 0.2% AM, sample taken at 4 h",59 * %
same,"passage of [14C]-caffeine, percentage of passage relative to an untreated control","Batch 1 of reconstructed epidermis, 0.2% AM, sample taken at 5 h",63 * %
same,"passage of [14C]-caffeine, percentage of passage relative to an untreated control","Batch 1 of reconstructed epidermis, 0.2% AM, sample taken at 6 h",63 * %
same,"passage of [14C]-caffeine, percentage of passage relative to an untreated control","Batch 1 of reconstructed epidermis, 0.2% AM, sample taken at 7 h",66 * %
same,"passage of [14C]-caffeine, percentage of passage relative to an untreated control","Batch 1 of reconstructed epidermis, 0.2% AM, sample taken at 9 h",79 * %
same,"passage of [14C]-caffeine, percentage of passage relative to an untreated control","Batch 1 of reconstructed epidermis, 0.2% AM, sample taken at 24 h",70 * %
same,"passage of [14C]-caffeine, percentage of passage relative to an untreated control","Batch 2 of reconstructed epidermis, 0.04% AM, sample taken at 1 h",143%
same,"passage of [14C]-caffeine, percentage of passage relative to an untreated control","Batch 2 of reconstructed epidermis, 0.04% AM, sample taken at 2 h",65 * %
same,"passage of [14C]-caffeine, percentage of passage relative to an untreated control","Batch 2 of reconstructed epidermis, 0.04% AM, sample taken at 3 h",92%
same,"passage of [14C]-caffeine, percentage of passage relative to an untreated control","Batch 2 of reconstructed epidermis, 0.04% AM, sample taken at 4 h",78 * %
same,"passage of [14C]-caffeine, percentage of passage relative to an untreated control","Batch 2 of reconstructed epidermis, 0.04% AM, sample taken at 5 h",84%
same,"passage of [14C]-caffeine, percentage of passage relative to an untreated control","Batch 2 of reconstructed epidermis, 0.04% AM, sample taken at 6 h",80 * %
same,"passage of [14C]-caffeine, percentage of passage relative to an untreated control","Batch 2 of reconstructed epidermis, 0.04% AM, sample taken at 7 h",91%
same,"passage of [14C]-caffeine, percentage of passage relative to an untreated control","Batch 2 of reconstructed epidermis, 0.04% AM, sample taken at 8 h",88 * %
same,"passage of [14C]-caffeine, percentage of passage relative to an untreated control","Batch 2 of reconstructed epidermis, 0.04% AM, sample taken at 9 h",93%
same,"passage of [14C]-caffeine, percentage of passage relative to an untreated control","Batch 2 of reconstructed epidermis, 0.04% AM, sample taken at 10 h",85 * %
same,"passage of [14C]-caffeine, percentage of passage relative to an untreated control","Batch 2 of reconstructed epidermis, 0.04% AM, sample taken at 24 h",99%
same,"passage of [14C]-caffeine, percentage of passage relative to an untreated control","Batch 2 of reconstructed epidermis, 0.2% AM, sample taken at 1 h",162%
same,"passage of [14C]-caffeine, percentage of passage relative to an untreated control","Batch 2 of reconstructed epidermis, 0.2% AM, sample taken at 2 h",61 * %
same,"passage of [14C]-caffeine, percentage of passage relative to an untreated control","Batch 2 of reconstructed epidermis, 0.2% AM, sample taken at 3 h",82%
same,"passage of [14C]-caffeine, percentage of passage relative to an untreated control","Batch 2 of reconstructed epidermis, 0.2% AM, sample taken at 4 h",67 * %
same,"passage of [14C]-caffeine, percentage of passage relative to an untreated control","Batch 2 of reconstructed epidermis, 0.2% AM, sample taken at 5 h",75 * %
same,"passage of [14C]-caffeine, percentage of passage relative to an untreated control","Batch 2 of reconstructed epidermis, 0.2% AM, sample taken at 6 h",75 * %
same,"passage of [14C]-caffeine, percentage of passage relative to an untreated control","Batch 2 of reconstructed epidermis, 0.2% AM, sample taken at 7 h",84 * %
same,"passage of [14C]-caffeine, percentage of passage relative to an untreated control","Batch 2 of reconstructed epidermis, 0.2% AM, sample taken at 8 h",80 * %
same,"passage of [14C]-caffeine, percentage of passage relative to an untreated control","Batch 2 of reconstructed epidermis, 0.2% AM, sample taken at 9 h",88%
same,"passage of [14C]-caffeine, percentage of passage relative to an untreated control","Batch 2 of reconstructed epidermis, 0.2% AM, sample taken at 10 h",80 * %
same,"passage of [14C]-caffeine, percentage of passage relative to an untreated control","Batch 2 of reconstructed epidermis, 0.2% AM, sample taken at 24 h",95%
same,slowing down of caffeine passage compared with vitamin C (reference molecule),"result in words, comparison with vitamin C 200 μg/ml",greater
same,effect on the passage of the radiolabelled caffeine through the reconstructed epidermides (barrier function),"result in words, two batches of reconstructed epidermis",slows down the passage of the radiolabelled caffeine
"O=C1O[C@H]([C@@H](O)CO)C(O)=C1O [Vitamin C, reference compound]","passage of [14C]-caffeine, percentage of passage relative to an untreated control","Batch 1 of reconstructed epidermis, 200 μg/ml, sample taken at 1 h 30",81%
same,"passage of [14C]-caffeine, percentage of passage relative to an untreated control","Batch 1 of reconstructed epidermis, 200 μg/ml, sample taken at 3 h",95%
same,"passage of [14C]-caffeine, percentage of passage relative to an untreated control","Batch 1 of reconstructed epidermis, 200 μg/ml, sample taken at 4 h",81%
same,"passage of [14C]-caffeine, percentage of passage relative to an untreated control","Batch 1 of reconstructed epidermis, 200 μg/ml, sample taken at 5 h",80 * %
same,"passage of [14C]-caffeine, percentage of passage relative to an untreated control","Batch 1 of reconstructed epidermis, 200 μg/ml, sample taken at 6 h",86%
same,"passage of [14C]-caffeine, percentage of passage relative to an untreated control","Batch 1 of reconstructed epidermis, 200 μg/ml, sample taken at 7 h",75 * %
same,"passage of [14C]-caffeine, percentage of passage relative to an untreated control","Batch 1 of reconstructed epidermis, 200 μg/ml, sample taken at 9 h",85%
same,"passage of [14C]-caffeine, percentage of passage relative to an untreated control","Batch 1 of reconstructed epidermis, 200 μg/ml, sample taken at 24 h",85%
same,"passage of [14C]-caffeine, percentage of passage relative to an untreated control","Batch 2 of reconstructed epidermis, 200 μg/ml, sample taken at 1 h",117%
same,"passage of [14C]-caffeine, percentage of passage relative to an untreated control","Batch 2 of reconstructed epidermis, 200 μg/ml, sample taken at 2 h",77 * %
same,"passage of [14C]-caffeine, percentage of passage relative to an untreated control","Batch 2 of reconstructed epidermis, 200 μg/ml, sample taken at 3 h",84%
same,"passage of [14C]-caffeine, percentage of passage relative to an untreated control","Batch 2 of reconstructed epidermis, 200 μg/ml, sample taken at 4 h",86 * %
same,"passage of [14C]-caffeine, percentage of passage relative to an untreated control","Batch 2 of reconstructed epidermis, 200 μg/ml, sample taken at 5 h",71 * %
same,"passage of [14C]-caffeine, percentage of passage relative to an untreated control","Batch 2 of reconstructed epidermis, 200 μg/ml, sample taken at 6 h",94%
same,"passage of [14C]-caffeine, percentage of passage relative to an untreated control","Batch 2 of reconstructed epidermis, 200 μg/ml, sample taken at 7 h",95%
same,"passage of [14C]-caffeine, percentage of passage relative to an untreated control","Batch 2 of reconstructed epidermis, 200 μg/ml, sample taken at 8 h",96%
same,"passage of [14C]-caffeine, percentage of passage relative to an untreated control","Batch 2 of reconstructed epidermis, 200 μg/ml, sample taken at 9 h",85%
same,"passage of [14C]-caffeine, percentage of passage relative to an untreated control","Batch 2 of reconstructed epidermis, 200 μg/ml, sample taken at 10 h",95%
same,"passage of [14C]-caffeine, percentage of passage relative to an untreated control","Batch 2 of reconstructed epidermis, 200 μg/ml, sample taken at 24 h",99%
